Results reported in paper PMC6912803, “Sideritis Perfoliata (Subsp. Perfoliata) Nutritive Value and Its Potential Medicinal Properties” (Antioxidants, 2019).

Experiments:
[1] = target: T1, Porcine pancreatic elastase (PPE) (Sus scrofa, UniProt P00772); assay: N-succinyl-(Ala)3-p-nitroanilide hydrolysis, absorbance at […] nm; type: biochemical; conditions: read-out: Positive Control MIC/IC50 ± SD (μg/mL) (converted)
T1 construct: gene CELA1; mature active protease

mushroom tyrosinase = test system: T2, mushroom tyrosinase; assay: L-tyrosine oxidation, absorbance at […] nm over […] min; type: biochemical; set-up: reference not given here; conditions: 2 mM L-tyrosine stock (110 µL added), potassium phosphate pH 6.5, room temperature, 5 min preincubation
T2 construct: gene PPO3; native commercial mushroom tyrosinase (Sigma-Aldrich), isoenzyme mixture

T1 sequence (P00772 27-266): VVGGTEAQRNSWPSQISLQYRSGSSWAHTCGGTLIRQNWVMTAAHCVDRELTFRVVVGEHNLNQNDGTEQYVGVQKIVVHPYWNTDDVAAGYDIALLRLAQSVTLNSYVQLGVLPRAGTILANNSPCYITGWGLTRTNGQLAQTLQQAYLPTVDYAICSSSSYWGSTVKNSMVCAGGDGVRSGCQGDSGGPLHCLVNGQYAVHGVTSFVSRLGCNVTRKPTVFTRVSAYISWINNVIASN

C[C@H]1[C@H](C)CC[C@]2(C(=O)O)CC[C@]3(C)C(=CC[C@@H]4[C@@]5(C)CC[C@H](O)C(C)(C)[C@@H]5CC[C@]43C)[C@H]12 [ursolic acid]
IC50 [1]: 40.4 µM

O=c1cc(CO)occ1O [kojic acid]
Positive Control MIC/IC50 ± SD (mushroom tyrosinase): 2.84 ± 0.23 µg/mL
